From paper PMC10269622, “Blapstin, a Diapause-Specific Peptide-Like Peptide from the Chinese Medicinal Beetle Blaps rhynchopetera, Has Antifungal Function” (Microbiology Spectrum, 2023)
Bridge positions count the residues as written; N and C are the ends. Ends that are not written are not given here.

How the values were obtained:
[1] = system: chymotrypsin; assay: Effect of protease on antifungal activity; type: in vitro ADME; conditions: 0.5 μL of 10 mg/mL chymotrypsin with 20 μL of 225 μM peptide, 37°C, 1 h; read-out paper disk assay against C. albicans
Description: (§1) (iii) Effects of protease. In terms of the influence of protease on the antifungal activity of blapstin, trypsin and chymotrypsin were selected for the experiment, and 0.5 μL of a 10-mg/mL concentration of proteases (including trypsin and chymotrypsin) and (20 μL(225 μM) of blapstin were mixed and incubated at 37°C for 1 h ([64]). Colistin E was used as the positive control, and 1.5% NaCl was used as the negative control. Then, these samples were transferred to the paper disks in the YM solid medium with C. albicans and incubated at 37°C for 18 h for the assay of antifungal activity.

[2] = system: trypsin; assay: Effect of protease on antifungal activity; type: in vitro ADME; conditions: 0.5 μL of 10 mg/mL trypsin with 20 μL of 225 μM peptide, 37°C, 1 h; read-out paper disk assay against C. albicans
Description: as §1

[3] = system: C. albicans ATCC 10231; assay: Fungus-killing kinetics (colony counting); type: cell-based, Candida albicans; conditions: 5× MIC, 2 × 10^5 CFU/mL in YM broth, 37°C, three independent experiments
Description: The in vitro killing curve for blapstin against C. albicans was determined as described previously with minor modifications ([66]). In brief, C. albicans ATCC 10231 was diluted to 2 × 10^5 CFU/mL with sterile YM liquid broth. Different concentrations of blapstin (1×, 5×, and 10× MIC) were added to the fungal suspension and cultured at 37°C for various periods (0, 1, 10, 30, 60, and 180 min). Colistin E (1×, 5×, and 10× MIC) was used as a positive control, and 0.9% NaCl was used as a negative control. Within the specified time interval after incubation, the fungal suspensions were diluted 1,000-fold with YM medium, and 100 μL of the diluted fungal suspension was inoculated on YM solid medium. After incubation at 37°C for 24 h, colony counting was performed and the results were expressed as CFU per milliliter.

[4] = system: C. albicans ATCC 10231 biofilm; assay: Inhibition of biofilm formation (crystal violet); type: cell-based, Candida albicans; conditions: 0.5×, 1×, 2×, 4× and 8× MIC, 24 h, 37°C, absorbance at 600 nm
Description: Biofilms are microbial aggregates produced by the extracellular matrix that are attached to abiotic and biotic surfaces ([57]). A biofilm inhibition assay was performed as previously described, with minor modifications, to determine the ability of blapstin to inhibit biofilm formation ([69], [70]). In brief, the concentration of C. albicans ATCC 10231 was adjusted to 1 × 10^6 CFU/mL, and 200 μL per well was added to sterile 96-well plates mixed with different concentrations of blapstin (0.5×, 1×, 2×, 4×, and 8× MIC). After incubation for 24 h at 37°C, these wells were washed three times with PBS to remove unadhered fungal cells, followed by fixation with 99% methanol for 15 min. Next, methanol was removed, and the wells were allowed to dry. Then, 100 μL of 0.1% crystal violet was added to each well for 10 min, and the plate was washed three times. Finally, 100 μL of 95% ethanol was added, and the absorbance at 600 nm was measured to assess biofilm formation. Fluconazole at 10 μM and clotrimazole at 10 μΜ were used as a positive control, and sterile 0.9% NaCl was used as a negative control.

[5] = system: established biofilms of C. albicans ATCC 10231; assay: Biofilm eradication assay (crystal violet); type: cell-based, Candida albicans; conditions: 24 h preformed biofilm, 0.5× to 8× MIC, 37°C, absorbance at 600 nm
Description: First, 100 μL of C. albicans ATCC 10231 suspension (1 × 10^6 CFU/mL) was added to each well of a sterile 96-well plate. The plate was incubated at 37°C for 24 h to make the biofilm adhere to the walls and washed three times with PBS. Next, 100 μL of serial dilutions of blapstin (0.5×, 1×, 2×, 4×, and 8× MIC) prepared using YM medium was added to the plate, followed by incubation at 37°C for 24 h. Fluconazole at 10 μM and clotrimazole at 10 μΜ were used as a positive control, and sterile 0.9% NaCl was used as a negative control. After incubation, the liquid in the plate was discarded and washed three times with PBS, followed by the addition of 1% crystal violet solution to each well and incubation at room temperature for 10 min. Finally, the plate was washed three times with PBS, and 100 μL of 95% ethanol was added per well. The percentage of biofilm removal was estimated by measuring the absorbance at 600 nm.

[6] = system: C. albicans ATCC 10231; assay: Intracellular ROS burst, H2DCFDA probe; type: cell-based, Candida albicans; conditions: 1×, 8×, 32× MIC, 37°C, 30 min
Description: H2DCFDA is a cell-permeable probe for detecting intracellular ROS ([72]). C. albicans ATCC 10231 was cultured in YM medium to logarithmic stage in a constant-temperature shaking machine at 37°C, centrifuged at 1,000 × g for 5 min to remove the supernatant, and washed with normal saline three times, and then the fungal solution was diluted to an OD600 of 0.1. Different concentrations of blapstin (1× MIC, 8× MIC, 32× MIC) were added to diluted fungal suspension and incubated at 37°C for 30 min. H2O2 at 0.1 mM was used as the positive control, and 0.9% NaCl was used as the negative control. After incubation, the suspension was centrifuged at 1,000 × g for 5 min to discard the supernatant and leave the thallus precipitation. The H2DCFDA dye was dissolved with DMSO and diluted with 0.9% NaCl containing 15% DMSO to achieve a final concentration of 10 μM. The thallus precipitation was mixed with 1 mL of a […] H2DCFDA working solution to each tube, incubated at 37°C for 30 min, and then centrifuged at 1,000 × g for 5 min to remove the supernatant. […] One milliliter of 0.9% NaCl was added to each tube and analyzed with a multifunctional fluorescent enzyme labeling instrument (SynergyH1; Biotek, USA). The excitation/emission wavelengths were set at […], and the ROS burst was monitored. The experiment was repeated three times, with three biological replicates at a time.

[7] = system: ion channel; assay: Ion channel inhibition; conditions: stated in the discussion only, no method or channel given

## VRVGPCDQVCSRTNPEKDECCRAHGHSGHSSCYGGRMNCYG (disulfide 6-21, 10-32, 20-39 (inferred)) [Blapstin]
[1]
  Sensitivity of antifungal activity to protease: insensitive
[2]
  Sensitivity of antifungal activity to protease: insensitive
[3]
  Time to kill C. albicans ATCC 10231: less than 60 min
[4]
  Biofilm formation by C. albicans: dose-dependently inhibited
[5]
  Eradication of established biofilms of C. albicans: disrupted established biofilms
[6]
  Change in ROS fluorescence in C. albicans: increased
[7]
  Ion channel inhibition activity: did not show ion channel inhibition activity
